{"source": "patent US20190134060A1", "about": "“25-HYDROXYCHOLESTEROL AND METHODS OF USE THEREOF” (priority 2016, published 2019)", "key": {"[1]": {"tested_on": "hippocampal neuron cultures from C571Bl/6 mice", "experiment": "NMDAR-independent neuroprotection in WT and CYP46A1 knockout mouse hippocampal neuron cultures", "format": "cell-based", "procedure": "(§1) FIG. 6A, FIG. 6B, FIG. 6C, FIG. 6D, and FIG. 6E depict graphs showing that 25-HC has an NMDAR-independent protecting effect on OGD-induced cell death. (FIG. 6A) Survival rate was compared between control, OGD (3 hour), OGD (3 hour)+MK-801, and OGD (3 hour) +MK-801+25-HC. […] 25-HC protected against the MK-801 insensitive OGD-induced cell death. (n=12 cultures for each group, one-way repeated measures ANOVA with Bonferroni's post hoc test, *p<0.05, ***p<0.001). […] (FIG. 6C) H2O2 (100 μM, 1 hour treatment) toxicity was used to test neuroprotection of 25-HC. 25-HC again yielded mild but reliable protection (N=10 cultures for each group, one-way repeated measures ANOVA with Bonferroni's post hoc test, *P<0.05). (FIG. 6D) and (FIG. 6E) Neither WT nor CYP46A1 knockout hippocampal neuron cultures from C571Bl/6 mice was sensitive to the mild NMDAR independent neuroprotective effect of 25-HC (N=7 cultures for each group; P>0.05).\n(§2) To further test the NMDAR-independence neuroprotective effect, a model of oxidative damage: H2O2 induced toxicity was used.\nCell culture. All animal care and experimental procedures were consistent with National Institutes of Health guidelines and were approved by the Washington University Animal Studies Committee. Studies involving animals are reported in accordance with the ARRIVE guidelines for reporting experiments involving animals (12, 13). […]"}, "hippocampal cultures [2]": {"tested_on": "hippocampal cultures", "experiment": "H2O2 induced toxicity (model of oxidative damage)", "format": "cell-based", "conditions": "H2O2 100 μM, 1 hour treatment; in the presence of MK-801", "procedure": "as §1, §2"}, "hippocampal cultures [3]": {"tested_on": "hippocampal cultures", "experiment": "NMDA-induced cell death (NMDA toxicity) in hippocampal cultures", "format": "cell-based", "procedure": "If the neuroprotective effects of 25-HC are entirely through antagonism of NMDAR function and endogenous, local 24S-HC, it would be expected that 25-HC should also reduce direct NMDA-induced cell death. NMDA was exogenously applied at either 8 μM or 20 μM to induce mild or severe toxicity (FIG. 5A).\n(§3) Cell culture. All animal care and experimental procedures were consistent with National Institutes of Health guidelines and were approved by the Washington University Animal Studies Committee. Studies involving animals are reported in accordance with the ARRIVE guidelines for reporting experiments involving animals (12, 13). Rat or mouse hippocampal cultures were prepared from postnatal day 1 to 3, pups of both sexes (85% female) anaesthetized with isoflurane. Hippocampal slices (500 μm thickness) were digested with 1 mg⋅mL^−1 papain in oxygenated LeibovitzL-15 medium (Life Technologies, Gaithersburg, Md., USA). Tissue was mechanically triturated in modified Eagle's medium (Life Technologies) containing 5% horse serum, 5% FCS, 17 mM D glucose, 400 μM glutamine, 50 U⋅mL^−1 penicillin and 50 μg⋅mL^−1 streptomycin. Cells were seeded in modified Eagle's medium at a density of ˜650 cells per mm^2 (onto 25 mm cover glasses coated with 5 mg⋅mL^−1 collagen or 0.1 mg⋅mL^−1 poly-D-lysine with 1 mg⋅mL^−1 laminin). Cultures were incubated at 37° C. in a humidified chamber with 5% CO2/95% air. Cytosine arabinoside (6.7 μM) was added 3-4 days after plating to inhibit glial proliferation. The following day, half of the culture medium was replaced with Neurobasal medium (Life Technologies) plus B27 supplement (Life Technologies).\n(§4) Data analysis. Five 10× microscope fields were quantified per condition per experiment, yielding>100 total neurons for each condition. Ratios of healthy neurons were quantified as the fraction of PI-negative neuronal nuclei to total neuronal nuclei. Automated cell counting algorithms (ImageJ software, National Institutes of Health, Bethesda, Md., USA) were used for cell counts. Toxicity experiments were treated as a dependent sample design (32) in which sibling cultures plated in identical media and exposed to OGD at the same time were compared by repeated measures statistics. Results are shown as means±SEM. Comparative statistics were performed with Student's t-test or one-way repeated measures ANOVA where indicated."}, "NMDARs [4]": {"tested_on": "NMDARs", "conditions": "cited from earlier work"}, "rat hippocampal cultures": {"tested_on": "rat hippocampal cultures", "experiment": "Oxygen-glucose deprivation (OGD, 2.5 hours)-induced cell death, PI/Hoechst survival", "format": "cell-based", "conditions": "for OGD-induced cell death exacerbated by 24S-HC, effect of NMDAR antagonist: co-treatment prior to and during OGD", "procedure": "as §3\n(§5) Oxygen-glucose deprivation. Mass cultures (13-14 DIV) were exposed to oxygen-glucose deprivation (OGD), in which original medium containing 25 mM glucose was exchanged for fresh MEM medium […] and exposed to a sealed chamber (Billups-Rothenberg, Del Mar, Calif., USA), humidified and saturated with 95% nitrogen and 5% CO2 at 37° C., for 2.5 hours. The gas exchange followed the specifications of the chamber manufacturer (flow of 20 L⋅minute^−1 for 4 minutes to achieve 100% gas exchange). In some experiments, original medium was exchanged for fresh MEM medium containing the specified drugs immediately prior to OGD exposure. Controls were incubated in MEM medium without oxygen deprivation. Following OGD or control treatment, cells were returned to their original medium and incubated under standard culture conditions until the cell death assay (24 hours later). Hoechst 33342 (5 μM) was used to identify all nuclei and propidium iodide (PI, 3 μM) for 30 minutes to stain nuclei of cells with compromised membranes.\nas §4"}, "hippocampal cultures [5]": {"tested_on": "hippocampal cultures", "experiment": "More severe OGD (3 hours) with NMDAR blockade by MK-801, cell death", "format": "cell-based", "conditions": "for normalized survival: n=9 cultures", "procedure": "As a final test, a more severe OGD insult was applied by increasing OGD exposure time from 2.5 hours to 3 hours to help emphasize any NMDAR-independent mechanisms of OGD-induced death.\nas §5, §4"}, "NMDARs [6]": {"tested_on": "NMDARs", "experiment": "Modulation of NMDAR function"}}, "note": "Entries after “also recorded” stand apart in the source; their conditions may differ."}
{"smiles": "C[C@H](CCCC(C)(C)O)[C@H]1CC[C@H]2[C@@H]3CC=C4C[C@@H](O)CC[C@]4(C)[C@H]3CC[C@]12C", "note": "[25-HC, 5-cholestene-3β,25-diol]", "values": [{"measurement": "NMDAR-independent neuroprotective effect", "setting": "[1]; CYP46A1 knockout mouse cultures", "value": "did not extend"}, {"measurement": "NMDAR-independent neuroprotective effect", "setting": "[1]; WT mouse cultures", "value": "did not extend"}, {"measurement": "neuroprotection against H2O2 induced toxicity", "setting": "hippocampal cultures [2]", "value": "mild but consistent neuroprotective effect"}, {"measurement": "24S-HC exacerbation of NMDA toxicity", "setting": "hippocampal cultures [3]; 10 μM 25-HC, 8 μM NMDA + 24S-HC", "value": "significantly alleviated"}, {"measurement": "neuroprotection against NMDA-induced cell death", "setting": "hippocampal cultures [3]; 10 μM 25-HC, NMDA 8 μM or 20 μM", "value": "no neuroprotection"}, {"measurement": "antagonism of 24S-HC effects on NMDARs", "setting": "NMDARs [4]", "value": "non-competitively antagonizes"}, {"measurement": "OGD-induced cell death without exogenous 24S-HC", "setting": "rat hippocampal cultures; 10 μM 25-HC incubation during the OGD insult", "value": "alleviated"}, {"measurement": "SGE-201-exacerbated OGD injury", "setting": "rat hippocampal cultures; 10 μM 25-HC with 1 μM SGE-201", "value": "alleviated"}, {"measurement": "survival rates, treatment before versus after OGD insult", "setting": "rat hippocampal cultures; 25-HC before or after OGD insult", "value": "comparable survival rates"}, {"measurement": "OGD-induced cell death relative to 24S-HC and OGD alone", "setting": "rat hippocampal cultures; co-treatment 10 μM 25-HC and 2 μM 24S-HC", "value": "significantly alleviated OGD-induced cell death"}, {"measurement": "neuroprotection against MK-801 insensitive OGD-induced cell death", "setting": "hippocampal cultures [5]; 10 μM 25-HC in the presence of 20 μM MK-801, OGD 3 hours", "value": "mild but significant neuroprotection"}]}
{"smiles": "CN[C@H](CC(=O)O)C(=O)O", "note": "[NMDA]", "values": [{"measurement": "cell survival", "setting": "hippocampal cultures [3]; NMDA at 8 μM and 20 μM", "value": "significantly reduced cell survival"}]}
{"smiles": "C[C@H](CCC(C)(C)O)[C@H]1CC[C@H]2[C@@H]3CC=C4C[C@@H](O)CC[C@]4(C)[C@H]3CC[C@]12C", "note": "[SGE-201]", "values": [{"measurement": "OGD injury", "setting": "rat hippocampal cultures; 1 μM SGE-201", "value": "exacerbated OGD injury"}, {"measurement": "exacerbation of OGD toxicity", "setting": "hippocampal cultures [5]; 1 μM SGE-201 in the presence of 20 μM MK-801", "value": "failed to exacerbate OGD toxicity"}, {"measurement": "normalized survival", "setting": "hippocampal cultures [5]; OGD 3 hours + 20 μM MK-801 + 1 μM SGE-201", "value": "0.64±0.04"}]}
{"smiles": "C[C@]12N[C@H](Cc3ccccc31)c1ccccc12", "note": "[MK-801]", "values": [{"measurement": "OGD-induced cell death exacerbated by 24S-HC, effect of NMDAR antagonist", "setting": "rat hippocampal cultures", "value": "prevented"}, {"measurement": "cell death after OGD 3 hours", "setting": "hippocampal cultures [5]; 20 μM MK-801", "value": "partially rescued"}, {"measurement": "normalized survival", "setting": "hippocampal cultures [5]; OGD 3 hours + 20 μM MK-801", "value": "0.66±0.03"}]}
{"smiles": "CC(C)[C@@H](O)CC[C@@H](C)[C@H]1CC[C@H]2[C@@H]3CC=C4C[C@@H](O)CC[C@]4(C)[C@H]3CC[C@]12C", "note": "[24S-HC, 24S-hydroxycholesterol]", "values": [{"measurement": "NMDA toxicity with 24S-HC co-treatment", "setting": "hippocampal cultures [3]; 8 μM NMDA", "value": "exacerbated NMDA toxicity"}, {"measurement": "exogenous concentration needed to potentiate NMDAR function", "setting": "NMDARs [6]", "value": "~50", "unit": "nM"}, {"measurement": "concentration at which effects on NMDAR function saturate", "setting": "NMDARs [4]", "value": "~10", "unit": "µM"}, {"measurement": "survival compared to OGD alone", "setting": "rat hippocampal cultures; 24S-HC 0.5 μM", "value": "significantly poorer survival"}, {"measurement": "OGD-induced cell death / survival rate", "setting": "rat hippocampal cultures; 24S-HC 2 μM, exogenous application, WT rat hippocampal cultures 14 days in vitro", "value": "significantly poorer survival; also recorded: enhanced OGD-induced cell death; also recorded: significantly lower survival rate"}, {"measurement": "effect on survival when administered alone (no OGD)", "setting": "rat hippocampal cultures; 24S-HC alone", "value": "Consistent effects of 24S-HC were not observed"}, {"measurement": "concentration dependence of OGD-induced cell death", "setting": "rat hippocampal cultures; 24S-HC over a range of 50 nM to 2 μM, rat cultures", "value": "depended on 24S-HC concentration"}]}
{"smiles": "N[C@@H](CCCP(=O)(O)O)C(=O)O", "note": "[APV]", "values": [{"measurement": "OGD-induced cell death in AAV-CYP-GFP and AAV-GFP-infected neuron cultures", "setting": "rat hippocampal cultures; APV", "value": "prevented OGD-induced cell death"}, {"measurement": "neuroprotection against OGD", "setting": "rat hippocampal cultures; administered before and during OGD", "value": "highly neuroprotective"}, {"measurement": "neuroprotection against OGD", "setting": "rat hippocampal cultures; administered during the latent period following OGD insult", "value": "much less effective"}, {"measurement": "OGD-induced cell death exacerbated by 24S-HC, effect of NMDAR antagonist", "setting": "rat hippocampal cultures", "value": "rescued"}]}
